Where “and” joins values, the source holds several entries; their conditions need not be identical. Equal entries are not always repeated.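 In this assay, cells in 96-well plates receive the compound at five concentrations for 48 hours. Endpoints are linearly interpolated between the surrounding concentrations. GI50 marks 50% less growth. TGI: concentration producing complete growth inhibition.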
How the values were obtained:
Experiment in all cases: inhibition of tumour cell growth, NCI panel, 48 h
[1] = system: 786-0 renal
[2] = system: DMS 114 small cell lung
[3] = system: KM20L2 colon
[4] = system: MDA-MB-435
[5] = system: NCI-H23 lung
[6] = system: OVCAR-5 ovarian
[7] = system: RXF 393 renal
[8] = system: SF-268 CNS
[9] = system: SK-MEL-5 melanoma
[10] = system: UACC-257 melanoma

| Structure (SMILES) | GI50 [1] [µM] | TGI [1] [µM] | GI50 [2] [µM] | TGI [2] [µM] | TGI [3] [µM] | TGI [4] [µM] | GI50 [5] [µM] | TGI [5] [µM] | GI50 [6] [µM] | TGI [6] [µM] | TGI [7] [µM] | GI50 [8] [µM] | TGI [8] [µM] | GI50 [9] | TGI [9] [µM] | TGI [10] [µM] | GI50 [7] [µM] | GI50 [10] [µM] | GI50 [3] [µM] |
| --- | --- | --- | --- | --- | --- | --- | --- | --- | --- | --- | --- | --- | --- | --- | --- | --- | --- | --- | --- |
| COc1cc(C2c3cc4c(cc3[C@@H](Nc3ccc([N+](=O)[O-])cc3)C3COC(=O)[C@H]23)OCO4)cc(OC)c1O (stereo partly drawn) | 0.377 | 3.35 | 0.614 | 6.26 | 14.8 | > 100 | 0.341 | 4.12 | 0.722 | 13.6 | 6.93 | 0.914 | 39.5 | 0.74 µM | 3.94 | 34.5 |  |  |  |
| COc1ccc(/C=C\c2cc(OC)c(OC)c(OC)c2)cc1OC(=O)CC(N)C(=O)O (stereo not drawn) | 0.000174 |  |  | 0.00318 | 21.2 | 0.000316 | 0.000635 | 0.0465 | 55.8 | > 100 |  | 0.000945 | 0.365 | 0.000453 µM and 0.00141 µM |  | > 100 | 0.00122 | 11.9 |  |
| CCC[CH2][Sn]([CH2]CCC)([O]C(=O)c1cc(F)ccc1F)[O]C(=O)c1cc(F)ccc1F | 1.15 | 2.37 | 0.372 | 1.41 | 3.37 |  | 0.731 | 2.02 | 1.91 | 3.31 | 1.12 | 1.14 | 2.37 | 1.57 µM | 2.91 | 2.49 | 0.326 | 1.24 | 1.76 |
| O=[N+]([O-])c1cccc(S(=O)(=O)N/N=C/c2cc(I)cc([N+](=O)[O-])c2O)c1 |  | > 100 |  | 53.8 | > 100 |  |  | 42.4 |  | > 100 | 56.3 |  | 79.3 |  | 44 | 57 |  |  |  |
| CCOC(=O)C(=O)Nc1c(C)cccc1C(C)(C)C |  | > 100 |  | > 100 | > 100 |  |  | > 100 |  | > 100 | > 100 |  | > 100 |  | > 100 | > 100 |  |  |  |
| CCCS(=O)c1nc(COC(=O)NC)c(COC(=O)NC)n1C (stereo not drawn) |  | > 100 |  | > 100 | > 100 |  |  | > 100 |  | > 100 | > 100 |  | > 100 |  | > 100 | > 100 |  |  |  |
| Cc1ccc(C2[C@H]3C(=O)N(c4ccc(Cc5ccc(N6C(=O)[C@@H]7ON(c8ccccc8)C(c8ccc(C)cc8)[C@@H]7C6=O)cc5)cc4)C(=O)[C@H]3ON2c2ccccc2)cc1 (stereo partly drawn) |  | > 100 |  | > 100 | > 100 |  |  | > 100 |  | > 100 | > 100 |  | > 100 |  | > 100 | > 100 |  |  |  |
| O=[N+]([O-])c1ccc(C2SCc3nc4ccccc4n32)cc1 (stereo not drawn) |  | > 100 |  | > 100 | > 100 |  |  | > 100 |  | > 100 | > 100 |  | > 100 |  | 39.2 | > 100 |  |  |  |

From PubChem BioAssay (NCI)
